From patent publication US20100227853A1, “INHIBITORS OF CYCLIC AMP PHOSPHODIESTERASES” (Trustees of Boston College, priority 2008, published 2010) come the findings set out here.

The target in one assay is T1, PDE4B3 (Mus musculus, UniProt Q8VBU5).
T1 construct: targets used in the assays are full-length proteins (as opposed to simply the catalytic domain); expressed in transfected cells; host or cells: Schizosaccharomyces pombe, PDE gene integrated in place of cgs2
T1 sequence (Q8VBU5 1-721): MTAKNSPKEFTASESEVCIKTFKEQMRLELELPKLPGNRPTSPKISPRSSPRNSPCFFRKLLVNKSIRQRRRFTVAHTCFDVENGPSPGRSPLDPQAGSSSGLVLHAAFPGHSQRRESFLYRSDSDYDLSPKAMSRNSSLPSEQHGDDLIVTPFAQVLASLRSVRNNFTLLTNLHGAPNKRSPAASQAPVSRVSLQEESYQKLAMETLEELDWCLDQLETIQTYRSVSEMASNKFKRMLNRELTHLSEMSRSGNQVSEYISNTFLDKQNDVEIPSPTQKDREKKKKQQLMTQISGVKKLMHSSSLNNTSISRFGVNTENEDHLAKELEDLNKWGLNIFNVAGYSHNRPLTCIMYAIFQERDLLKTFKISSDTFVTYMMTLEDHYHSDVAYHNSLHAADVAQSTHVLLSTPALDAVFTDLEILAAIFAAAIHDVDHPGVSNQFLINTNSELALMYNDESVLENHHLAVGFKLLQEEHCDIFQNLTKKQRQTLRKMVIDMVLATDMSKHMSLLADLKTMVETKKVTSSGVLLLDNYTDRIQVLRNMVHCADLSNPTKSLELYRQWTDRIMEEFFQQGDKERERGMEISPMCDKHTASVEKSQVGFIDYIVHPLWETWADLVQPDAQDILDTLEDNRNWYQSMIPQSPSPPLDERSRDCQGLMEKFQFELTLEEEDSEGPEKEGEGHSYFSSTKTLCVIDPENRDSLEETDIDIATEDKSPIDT
Kind of assay: 5FOA growth assay in fission yeast strain expressing PDE4B3. Format: cell-based, Murine. As to conditions: for Composite Z score, PDE4B3: high throughput 5FOA growth screen. In outline:
(§1)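 Fission yeast strains carrying mouse PDE4A1 or PDE4B3 and an fbp1-ura4 reporter were pregrown in EMM with 0.5–2.5 mM cAMP, then seeded at 0.5–4×10^5 cells/ml in 5FOA medium with compound. Growth was read as OD600 after 48 h at 30° C; composite Z scores were derived.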

Another assay concerns the target T2, PDE4A1 (Mus musculus, UniProt O89084).
T2 construct: targets used in the assays are full-length proteins (as opposed to simply the catalytic domain); expressed in transfected cells; host or cells: Schizosaccharomyces pombe, PDE gene integrated in place of cgs2
T2 sequence (O89084 1-610 isoform O89084-2): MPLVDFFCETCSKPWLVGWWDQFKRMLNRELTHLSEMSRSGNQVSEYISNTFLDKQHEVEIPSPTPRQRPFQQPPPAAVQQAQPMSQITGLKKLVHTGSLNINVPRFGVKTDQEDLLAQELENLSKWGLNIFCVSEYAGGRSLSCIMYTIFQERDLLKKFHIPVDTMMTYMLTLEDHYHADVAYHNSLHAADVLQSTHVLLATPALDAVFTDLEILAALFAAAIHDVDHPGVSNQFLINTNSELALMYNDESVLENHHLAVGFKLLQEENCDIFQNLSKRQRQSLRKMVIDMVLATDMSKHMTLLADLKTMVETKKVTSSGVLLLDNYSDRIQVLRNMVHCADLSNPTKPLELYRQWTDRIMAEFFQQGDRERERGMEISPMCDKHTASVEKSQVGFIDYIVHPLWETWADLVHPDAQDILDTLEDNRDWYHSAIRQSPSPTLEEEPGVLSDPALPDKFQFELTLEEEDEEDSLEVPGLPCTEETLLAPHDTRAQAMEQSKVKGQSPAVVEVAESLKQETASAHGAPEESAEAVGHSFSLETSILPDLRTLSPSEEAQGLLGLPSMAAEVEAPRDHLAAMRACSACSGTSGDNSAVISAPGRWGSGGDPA
Description: 5FOA growth assay (high throughput screen, ED50) in fission yeast strain expressing PDE4A1. Format: cell-based. The settings on record: for 1 Assay (20 uM) 4A1: PDE 4A1; for Composite Z score, PDE4A1: high throughput 5FOA growth screen, greater than 8.53 = statistically-significant inhibitor; for EC50: OD600 0.6. In outline:
as §1

Setting [1] is: value marked (m), read-out: ED50 for 5FOA growth assays, PDE4A1 (m).

Read-outs that look alike come from different tables or passages of the source.

With `COC(=O)C1=C(C)N(c2ccc(C(C)C)cc2)C(=O)/C1=C\c1ccco1` [2008, 019], on PDE4B3, the “1 Assay (20 uM) 4B3” value is −2.99 ND ND ND ND.
Turning to `COC(=O)C1/C(=C/c2cccc(OC)c2O)C(=O)N(c2ccccc2F)C1C` (centres unmarked) [2008, C21], the “1 Assay (20 uM) 4B3” value at PDE4B3 was determined as 24.16 ND ND ND ND.
Still for that read-out and setting: then `COC(=O)C1=C(C)N(c2ccccc2)/C(=C/c2cccs2)C1=O` [2008, K19], with −0.61 ND ND ND ND.
Turning to `CCCCn1c2ccccc2c2nc3ccccc3nc21` [2013, I20], the “1 Assay (20 uM) 4B3” value on PDE4B3 (PDE 4B3) stood at 0.29 ND ND ND ND. The “1 Assay (20 uM) 4A1” value at PDE4A1 stood at 80.55 ND ND ND ND.
Take `CC(C)Cn1c2ccc(Br)cc2c2nc3ccccc3nc21` [2015, L04]: the “1 Assay (20 uM) 4B3” value at PDE4B3 (PDE 4B3) came to 1.17 ND ND ND ND. For the same compound, at PDE4A1, the “1 Assay (20 uM) 4A1” value was 13.51 ND ND ND ND.
Turning to `CCc1ccc2c(c1)c1nc3ccccc3nc1n2CC` [2015, P06], the “1 Assay (20 uM) 4B3” value at PDE4B3 (PDE 4B3) was determined as 0.13 ND ND ND ND. Further, at PDE4A1, the “1 Assay (20 uM) 4A1” value turned out to be 23.52 ND ND ND ND.
Taken in the same sequence, the figures for `C=CCn1c2ccc(Br)cc2c2nc3ccccc3nc21` [2017, C18] were 56.91 ND ND ND ND and 49.17 ND ND ND ND.
Taken in the same sequence, the figures for `c1ccc(CCn2c3ccccc3c3nc4ccccc4nc32)cc1` [2019, G03] were 83.22 ND ND ND ND and 36.37 ND ND ND ND.
Taken in the same sequence, the figures for `C=Cn1c2ccccc2c2nc3ccccc3nc21` [2033, H06] were 103.11 ND ND ND ND and 29.62 ND ND ND ND.
In the case of `COc1ccccc1CNC(=O)c1sc2ncnc(N3CCN(c4ccccc4F)CC3)c2c1C` [2041 E21], the “Composite Z score, PDE4B3” value at PDE4B3 is recorded as −0.408. Moreover, the “Composite Z score, PDE4A1” value at PDE4A1 amounted to 1.9156.
In the case of `CNc1nc(=S)[nH]c2sc3c(c12)CCCC3` [2054 E08], the “Composite Z score, PDE4B3” value at PDE4B3 is 0.2798. At PDE4A1, the “Composite Z score, PDE4A1” value is −1.088.
As to `CC1CC(=O)N(c2ncnc3sc4c(c23)CCCC4)N1` (centres unmarked) [2054 E16], the “Composite Z score, PDE4B3” value at PDE4B3 is recorded as 0.62. The “Composite Z score, PDE4A1” value at PDE4A1 stood at 0.2389.
In the case of `CCC1CCc2c(sc3ncnc(N4CCOCC4)c23)C1` (centres unmarked) [BC33], the “Composite Z score, PDE4B3” value on PDE4B3 is listed as 42.416. In addition, the “Composite Z score, PDE4A1” value at PDE4A1 is reported as 50.594. Moreover, the EC50 on PDE4A1 (setting [1]) was determined as 23 µM; on PDE4A1 (value marked (r), read-out: ED50 for 5FOA growth assays, PDE4A1 (r)) it was 28 µM.
Turning to `CCN(CC)c1ncnc2sc3c(c12)CCCC3` [BC44], the “Composite Z score, PDE4B3” value at PDE4B3 came to 85.067. Also, the “Composite Z score, PDE4A1” value on PDE4A1 is listed as 22.267.
Taken in the same sequence, the figures for `Cc1c(C(=O)Nc2ccc(F)cc2F)sc2ncnc(N3CCC(C)CC3)c12` [BC58] were 78.927 and 34.335.
Regarding `Cc1sc2ncnc(Nc3ccccc3)c2c1C` [BC64], the “Composite Z score, PDE4B3” value at PDE4B3 is listed as 0.3426. Moreover, the “Composite Z score, PDE4A1” value on PDE4A1 is 24.925. Moreover, the EC50 at PDE4A1 (setting [1]) turned out to be 20 µM.
`COC(=O)C1=C(C)N(C2CCCCC2)C(=O)/C1=C\c1cccs1` [Compound 22]: on PDE4B3, the “2 Assay (2 uM), 4B3” value is recorded as 37.54 and the “1 Assay (20 uM) 4B3” value came to 70.26. The “2 Assay (2 uM), 4A1” value on PDE4A1 worked out at 27.01.
For `COC(=O)C1=C(C)N(c2ccccc2Cl)C(=O)/C1=C\c1cccs1` [Compound 27], in that order: 22.05, −0.26 and 17.41.
Taken in the same sequence, the figures for `N#Cc1sc2sc(C#N)c(-c3ccco3)c2c1N` [Compound 30] were 5.21, 4.67 and 4.56.
On to `Cc1ccc2c(c1)c1nc3ccccc3nc1n2C(C)C` [Compound 41], for which, at PDE4B3 (PDE 4B3), the “1 Assay (20 uM) 4B3” value was determined as 200.51. In addition, on PDE4A1, the “1 Assay (20 uM) 4A1” value is recorded as 106.90.
Take `Cc1c(C(=O)Nc2ccc(F)cc2F)sc2ncnc(N(C)c3ccccc3)c12` [Compound 58-9]: the “Composite Z score, PDE4B3” value on PDE4B3 is 78.662. Also, on PDE4A1, the “Composite Z score, PDE4A1” value worked out at 25.972.
Taken in the same sequence, the figures for `c1csc(CCNc2ncnc3sc4c(c23)CCC4)c1` [Compound 2005M12] were 0.0838 and −1.628.
Taken in the same sequence, the figures for `CCOC(=O)c1sc2nc(C)nc(N3CCC(C)CC3)c2c1C` [Compound 2007D06] were 0.2826 and −0.396.
Taken in the same sequence, the figures for `CCCCN(CC)C(=O)c1sc2ncnc(N3CCN(c4ccc(OC)cc4)CC3)c2c1C` [Compound 2007H06] were 0.3145 and 0.0978.
Consider `CCOC(=O)c1sc2nc(C)nc(N(C)Cc3ccccc3)c2c1C` [Compound 2007L04], for which the “Composite Z score, PDE4B3” value at PDE4B3 came out at 0.2682. For the same compound, the “Composite Z score, PDE4A1” value at PDE4A1 stood at 0.6949.
Consider `Cc1nc(NCCc2ccccc2)c2c3c(sc2n1)CCCC3` [Compound 2008G09], for which, on PDE4B3, the “Composite Z score, PDE4B3” value amounted to 0.0156. Besides, the “Composite Z score, PDE4A1” value at PDE4A1 amounted to 0.1429.
As for `O=C(/C=C/c1ccccc1)Nc1ncnc2sc3c(c12)CCC3` [Compound 2008K11], the “Composite Z score, PDE4B3” value on PDE4B3 came out at 0.0615. Further, the “Composite Z score, PDE4A1” value at PDE4A1 is recorded as −1.395.
Taken in the same sequence, the figures for `COc1ccc(CCNc2ncnc3sc4c(c23)CCCC4)cc1` [Compound 2012B19] were 43.053 and 32.257.
Taken in the same sequence, the figures for `O=C(Nc1ncnc2sc3c(c12)CCCCC3)c1ccc(F)cc1` [Compound 2012F09] were 35.319 and 34.225.
For `CC(C)CC(Nc1ncnc2sc3c(c12)CCC3)C(=O)O` (centres unmarked) [Compound 2012H20], in that order: 0.1698 and 0.407.
In the case of `Cc1cc(C)c(C)c(S(=O)(=O)N2CCN(c3ncnc4sc5c(c34)CCCC5)CC2)c1C` [Compound 2012L13], the “Composite Z score, PDE4B3” value on PDE4B3 was −0.543. At PDE4A1, the “Composite Z score, PDE4A1” value was determined as 1.67.
Taken in the same sequence, the figures for `O=C(O)CCNc1ncnc2sc3c(c12)CCCC3` [Compound 2012O16] were −0.716 and 2.8.
Regarding `CCOC(CNc1nc(C)nc2sc3c(c12)CCCC3)OCC` [Compound 2040D04], the “Composite Z score, PDE4B3” value on PDE4B3 is listed as 4.66. Further, on PDE4A1, the “Composite Z score, PDE4A1” value is listed as 3.1355.
For `CCOC(=O)c1sc2nc(Cc3ccccc3)nc(NCCC3CCCCC3)c2c1C` [Compound 2040F07], in that order: 5.0875 and 3.8961.
`Cc1nc(N2CCCCC2)c2c(C)c(C(=O)Nc3cccc(C(F)(F)F)c3)sc2n1` [Compound 2040F10]: on PDE4B3, the “Composite Z score, PDE4B3” value is on record as 16.5. The “Composite Z score, PDE4A1” value at PDE4A1 was determined as 11.225.
Taken in the same sequence, the figures for `Cc1c(C(=O)NCCC(C)C)sc2ncnc(N3CCOCC3)c12` [Compound 2040F13] were 0.9277 and 3.5005.
In the case of `Cc1c(C(=O)NCCC2CCCCC2)sc2ncnc(N3CCCCC3C)c12` (centres unmarked) [Compound 2040H10], the “Composite Z score, PDE4B3” value on PDE4B3 was −1.056. Also, at PDE4A1, the “Composite Z score, PDE4A1” value worked out at 14.925.
Consider `COc1cc(OC)c(NC(=O)c2sc3ncnc(N4CCCCC4C)c3c2C)cc1Cl` (centres unmarked) [Compound 2040J10], for which the “Composite Z score, PDE4B3” value at PDE4B3 came out at 1.7278. Also, the “Composite Z score, PDE4A1” value on PDE4A1 is recorded as 3.0133.
In the case of `CCN(CC)c1ncnc2sc(C(=O)N(C)C3CCCCC3)c(C)c12` [Compound 2040J12], the “Composite Z score, PDE4B3” value at PDE4B3 is listed as 5.3667. For the same compound, the “Composite Z score, PDE4A1” value on PDE4A1 was found to be 7.0857.
For `CCN(CC)c1nc(C)nc2sc(C(=O)Nc3cc(Cl)ccc3OC)c(C)c12` [Compound 2040L12], in that order: 3.2214 and 8.6742.
